Patent US8394767B2, “Methods of treating cancer using the calcitonin-gene related peptide (“CGRP”) receptor antagonist CGRP8-37” (University of Rochester, priority 2008, dated 2013)
Each block holds one molecule with its values, some of them ahead of it. No end group written: not given here.

Tests used:
[1] = system: rodent receptors over human receptors; conditions: cited from earlier work
anti-CGRP antibody JH84 = assay: Fluorescent competition assay with FL-CGRP tracer on immobilized antibody; format: binding; conditions: JH84 bound to 96-well plate, 100 pM FL-CGRP as tracer
Description: FIG. 11 is a graph illustrating that FL-CGRP can be used for a competition assay to determine CGRP concentrations. Affinity-purified JH84 antibody (100 ng/well) was linked to wells in a 96-well plate, and incubated with 100 pM FL-CGRP and increasing concentrations of unlabeled CGRP. Unbound peptide was washed from well, and fluorescence detected in a Perkin Elmer plate reader.
FL-CGRP was then used to develop a fluorescent competition assay. Affinity-purified anti-CGRP antibody JH84 was bound to the wells of a 96-well plate and […] FL-CGRP was incubated as tracer with either unlabeled CGRP, the homologous neuropeptide adrenomedullin (AM), or the CGRP antagonist CGRP(8-37). […] Thus, the antagonist could not totally compete with FL-CGRP for binding to the antibodies.

CNS1 glioma cells [2] = assay: CNS1 glioma tumor cell proliferation assay (CyQuant Direct Proliferation Assay); format: cell-based, rat; conditions: for stimulation of glioma growth over control: hypoxic conditions
Description: (§1) FIGS. 3A-B are graphs illustrating that CGRP is a potent stimulator of CNS1 glioma cell growth. CNS1 cells were seeded in 96-well plates, and grown for the indicated time in either normoxic (3A) or hypoxic (34B) conditions. Media was replaced every 24 hrs with fresh peptide-containing media. On each day, cell number was determined using the CyQuant Direct Proliferation Assay (Invitrogen).
The rat glioma cell line CNS1 was used in a tumor cell proliferation assay. Both AM and CGRP were tested for their ability to stimulate glioma growth. […] More striking was the effect under hypoxic conditions, where CGRP stimulated glioma growth 72-fold over control after 4 days in culture and 10-fold after 5 days in culture (FIG. 3B).

[3] = system: MDA-MB-231BR breast cancer cells; assay: MDA-MB-231BR breast cancer cell growth assay (CyQuant Direct Proliferation Assay); format: cell-based, human; conditions: normoxic conditions, after 4 days in culture
Description: as §1, with “4A-B” for “3A-B”, “MDA-MB231BR breast cancer” for “CNS1 glioma”, “MDA-MB231BR” for “CNS1”, “(4A)” for “(3A)”, “(4B)” for “(34B)”
A similar role for CGRP in the stimulation of breast cancer cell growth was observed using the MDA-MB-231BR breast cancer cell line. […] 81:39-48 (2007); Oxmann et al., “Endoglin Expression in Metastatic Breast Cancer Cells Enhances Their Invasive Phenotype,” Oncogene 27:3567-3575 (2008), each of which is herbey incorporated by reference in its entirety). In this assay, CGRP induced the MDA-MB-231BR breast cancer cells 6-fold over control after 4 days in culture under normoxic conditions (FIGS. 4A-B).

FL-CGRP = target: T1, FL-CGRP (Rattus norvegicus, UniProt P01256); assay: Immunoprecipitation of FL-CGRP by anti-CGRP antibodies; format: binding; conditions: saturating unlabeled CGRP
T1 sequence (P01256 83-119 limits assumed): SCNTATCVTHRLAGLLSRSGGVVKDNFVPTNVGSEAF
Text: FIGS. 10A-B illustrate the immunoprecipitation of FL-CGRP using anti-CGRP antibodies JH84 and MU33. FIG. 10B schematically illustrates the binding sites of these antibodies.
To be useful for development of non-radioactive competition assays, which will be useful for quantifying CGRP in tissues and cells, the FL-label at lysine^24 cannot inhibit anti-CGRP antibody binding. […] The binding sites for JH84 and MU33 on CGRP are illustrated schematically in FIG. 10B.

[4] = system: CGRP receptors (CLR-cherry and RAMP1); assay: FL-CGRP binding to COS1 cells transfected with CLR-cherry and RAMP1 (fluorescence microscopy)
Description: FIG. 12 is a panel of microscopy images illustrating that FL-CGRP specifically binds to cells expressing CLR and RAMP1. COS1 cells were transfected with CLR-cherry and RAMP1. 30 nM FL-CGRP was incubated with transfected cells for 30 minutes, and cells were washed 2× with PBS and visualized by phase-contrast microscopy (left panel), and fluorescent microscopy to identify cells expressing the CLR-cherry fusion protein (center panel) and cells that bound FL-CGRP (right panel).
COS1 cells were transfected with a fusion protein containing CLR-fused at its carboxyl terminus to the fluorescent protein cherry. CLR-cherry and RAMP1 were co-transfected into COS1 cells, and 48 hours post-transfection cells were incubated with FL-CGRP, and imaged using phase contrast microscopy (FIG. 12, left panel) as well as fluorescence microscopy for cherry (580 nm) (FIG. 12, center panel) and FL-CGRP (488 nm) (FIG. 12, right panel).

CGRP receptor [5] = target: T2, CGRP receptor (Mus musculus, UniProt O35427); assay: CGRP receptor signaling (cAMP) in NIH3T3 cells expressing L2/EGFP; format: cell-based; conditions: L2/EGFP expressed in NIH3T3 cells, which endogenously express CGRP receptors
T2 construct: NIH3T3 cells, which endogenously express CGRP receptors; endogenous in cells; host or cells: NIH3T3
T2 sequence (O35427 whole entry): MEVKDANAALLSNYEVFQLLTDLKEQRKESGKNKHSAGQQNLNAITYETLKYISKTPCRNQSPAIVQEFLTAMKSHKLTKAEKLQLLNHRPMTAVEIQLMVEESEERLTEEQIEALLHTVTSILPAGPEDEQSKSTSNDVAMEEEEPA
Text: (§2) FIG. 7A is a schematic illustration showing that the second intracellular loop of CLR was cloned as a fusion protein with enhanced green fluorescent protein (EGFP). […] The immunoprecipitate was separated by SDS-PAGE and probed with an antibody directed against RCP. RCP co-immunoprecipitated with the L2/EGFP fusion protein (lanes 5, 6) indicating an interaction between RCP and the second intracellular loop of CLR.
(§3) A fusion protein was constructed containing the second intracellular loop (“L2” or elsewhere designated “cpd2”) of CLR and the enhanced green fluorescent protein (L2/EGFP) (FIG. 7A). RCP co-immunoprecipitated with the L2/EGFP fusion protein, indicating a direct interaction between the two proteins (FIG. 7B). […] This confirmed the belief that over-expression of L2/EGFP pulls most of the available RCP away from the CGRP receptor complex, and that the CLR/RAMP1 complex is unable to signal. Thus, the site of interaction between the second intracellular loop of CLR and RCP represents a novel control site for signaling at CLR, and represents a candidate for development of anti-proliferative drugs to combat tumor growth.

CNS1 glioma cells [6] = assay: Growth of CNS1 glioma cells constitutively expressing L2/EGFP (FACS-purified); format: cell-based, rat; conditions: constitutive expression
Text: To examine the role of CLR in glioma proliferation, inhibition of CLR via expression of L2/EGFP was attempted. Although CNS1 cells that constitutively express GFP were generated using published techniques (Evans et al., “CGRP-RCP, A Novel Protein Required for Signal Transduction At Calcitonin Gene-Related Peptide and Adrenomedullin Receptors,” J Biol Chem 275(40):31438-43 (2000); Prado et al., “The Role of the CGRP-Receptor Component Protein (RCP) in Adrenomedullin Receptor Signal Transduction,” Peptides 22(11):1773-81 (2001); Rosenblatt et al., “Endoproteolysis At Tetrabasic Amino Acid Sites in Procalcitonin Gene-Related Peptide by Pituitary Cell Lines,” Peptides 18(4):567-76 (1997), which are hereby incorporated by reference in their entirety), upon transfection of the constitutively expressed L2/EGFP construct, pure fluorescent colonies could not be isolated.

[7] = system: breast cancer lines (human MDA-MB-231 and MDA-MB-231 BR, mouse 4T1 and TG1); assay: Growth of breast cancer lines constitutively expressing L2/EGFP (FACS-purified); format: cell-based; conditions: constitutive promoter
Text: To determine if the dominant-negative L2/EGFP fusion protein could inhibit CLR function in breast cancer cells, four breast cancer lines (human MDA-MB-231 and MDA-MB-231 BR lines and mouse 4T1 and TG1 lines) were transfected with L2/EGFP or GFP alone. MDA-MB231 and MDA-MB-231BR cells that constitutively express GFP were generated as previously described (Evans et al., “CGRP-RCP, a Novel Protein Required for Signal Transduction at Calcitonin Gene-Related Peptide and Adrenomedullin Receptors,” J Biol Chem 275(40):31438-43 (2000); Prado et al., “The Role of the CGRP-Receptor Component Protein (RCP) in Adrenomedullin Receptor Signal Transduction,” Peptides 22(11):1773-81 (2001); and Rosenblatt et al., “Endoproteolysis at Tetrabasic Amino Acid Sites in Procalcitonin Gene-Related Peptide by Pituitary Cell Lines” Peptides 18(4):567-76 (1997), which are hereby incorporated by reference in their entirety). However, when a constitutive promoter was used to express L2/EGFP in these tumor cells, pure fluorescent colonies could not be isolated because, it is believed, the constitutive expression of L2/EGFP was too effective at inhibiting tumor growth.

RCP = target: T3, RCP (Mus musculus, UniProt O35427); assay: Co-immunoprecipitation of RCP with L2/EGFP in NIH3T3 cells; format: binding; conditions: L2/EGFP transfected into NIH3T3 cells, GFP immunoprecipitation, probed with anti-RCP
T3 construct: endogenous in cells; host or cells: NIH3T3
T3 sequence (O35427 whole entry): as above
Text: as §2, §3

CGRP receptor [8] = conditions: oocyte-CFTR assay, Luebke et al. 1996; cited from earlier work

Molecule: NCCCC[C@H](NC(=O)[C@@H](Cc1cc(Br)c(O)c(Br)c1)NC(=O)N1CCC(N2Cc3ccccc3NC2=O)CC1)C(=O)N1CCN(c2ccncc2)CC1 [BIB4096, N-((1R)-2-(((1S)-5-amino-1-((4-(pyridin-4-yl)piperazin-1-yl)carbonyl)pentyl)amino)-1-(3,5-dibromo-4-hydroxybenzyl)-2-oxoethyl)-4-(2-oxo-1,4-dihydroquinazolin-3(2H)-yl)piperidine-1-carboxamide]
lower affinity for rodent receptors over human receptors [1]: 100-1000 ×

Molecule: FL-CGRP: rat CGRP with a single Alexa488 dye molecule attached to the lysine24 residue
binding to CGRP receptors [4]: high-affinity
FL-CGRP binding to cells ([4]; COS1 cells co-transfected with CLR-cherry and RAMP1, 48 hours post-transfection, 30 nM FL-CGRP): only observed to bind to cells that were expressing CLR-cherry
FL-CGRP binding to cells ([4]; untransfected cells): No FL-CGRP binding was detected

Molecule: SEQ ID NO:9: antisense DNA oligonucleotide TGCTCACTGTGTAAGCCTTAAATCCATCAAG (DNA, backbone not given here)
CGRP receptor function (CGRP receptor [8]): inhibit CGRP receptor function

Now from value to molecule, other results behind:

competition with FL-CGRP for binding to immobilized antibody (anti-CGRP antibody JH84): did not compete
Molecule: AM: the homologous neuropeptide adrenomedullin

competition with FL-CGRP for binding to immobilized antibody (anti-CGRP antibody JH84): partially competed
Molecule: CGRP8-37: peptide CGRP antagonist consisting of residues 8-37 of SEQ ID NO: 2

effect on immunoprecipitation of FL-CGRP by JH84 and MU33 (FL-CGRP): blocked
competition with FL-CGRP for binding to immobilized antibody (anti-CGRP antibody JH84): effectively competed
Molecule: CGRP: 37 amino acid neuropeptide derived from calcitonin-related polypeptide alpha; agonist of the CGRP receptor
stimulation of glioma growth over control (CNS1 glioma cells [2]; after 4 days in culture): 72 fold
stimulation of glioma growth over control (CNS1 glioma cells [2]; after 5 days in culture): 10 fold
increase of CNS1 cell growth over control (CNS1 glioma cells [2]; normoxic conditions, after 5 days in culture): 11 fold
induction of MDA-MB-231BR breast cancer cells over control [3]: 6 fold

signaling at the CGRP receptor as measured by cAMP (CGRP receptor [5]): inhibited signaling at the CGRP receptor
co-immunoprecipitation with RCP (RCP): co-immunoprecipitated
Molecule: L2/EGFP: fusion protein of the second intracellular loop of CLR and enhanced green fluorescent protein; dominant-negative inhibitor of CLR signaling (LIVVAVFAEKQHLMWYYFLGWGFPLIPACIH; also: fusion protein with EGFP)
growth of pure populations of cells expressing the dominant-negative inhibitor (CNS1 glioma cells [6]): would not grow
growth of pure populations of cells expressing the dominant-negative inhibitor [7]: would not grow
